Values of other authors, collected in PMC12304285 (British Journal of Cancer, 2025).

Test system: patients with advanced solid tumours
Set-up: method as in PMID 33230210
Conditions: single-agent trial; cited from earlier work

## COc1ccc([C@@H](O)c2cc(-c3ncnc4cc(N5CCOCC5)ccc34)c(F)cc2Cl)nn1 [peposertib]
  anaemia or myelosuppressive TEAEs: Neither anaemia nor myelosuppressive TEAEs were reported
